# Measured values: patent publication US11203600B2 (Denali Therapeutics Inc., priority 2017, dated 2021)
# Biological target: GST-hRIPK1 (8-327) (Homo sapiens (Human), UniProt Q13546)
# Test: Fluorescent Polarization Binding (FP Binding) assay, RIPK1
# Details: 10 nM GST-hRIPK1 (8-327), 5 nM fluorescent-labeled ligand, RT, 30 min, mean of at least two independent experiments
# Procedure, shortened: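 Compound displacement of 5 nM labelled ligand from 10 nM GST-hRIPK1 (8-327) was read as FP (531/595 nm) after 30 min at RT. Buffer: HEPES pH 7.5, NaCl, MgCl2, CHAPS, DTT, Pluronic; 1% DMSO final. IC50s were averaged over at least two independent runs.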
# Sequence of GST-hRIPK1 (8-327) (Q13546 8-327): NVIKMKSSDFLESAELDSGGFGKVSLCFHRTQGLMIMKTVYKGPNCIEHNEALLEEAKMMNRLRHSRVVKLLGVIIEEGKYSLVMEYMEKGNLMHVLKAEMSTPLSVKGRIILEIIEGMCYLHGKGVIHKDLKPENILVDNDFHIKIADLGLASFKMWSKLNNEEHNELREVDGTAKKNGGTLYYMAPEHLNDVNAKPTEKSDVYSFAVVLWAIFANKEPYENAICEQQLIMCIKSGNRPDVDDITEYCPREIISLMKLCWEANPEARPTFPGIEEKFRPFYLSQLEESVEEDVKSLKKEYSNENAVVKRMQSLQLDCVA
row,SMILES,IC50
1,"N#Cc1cncc2c1OCCN(C(=O)C1(F)CCN(c3ccnc4ccnn34)CC1)C2 [Example 110, 4-(4-fluoro-1-(pyrazolo[1,5-a]pyrimidin-7-yl)piperidine-4-carbonyl)-2,3,4,5-tetrahydropyrido[3,4-f][1,4]oxazepine-9-carbonitrile]",0.1 to 100 nM
2,"CC(C)(C(=O)N1CCOc2cccc(F)c2C1)C(F)F [Example 20, 3,3-difluoro-1-(6-fluoro-2,3-dihydrobenzo[f][1,4]oxazepin-4(5H)-yl)-2,2-dimethylpropan-1-one]",0.1 to 100 nM
3,"COc1nc(N2CCC(F)(C(=O)N3CCOc4c(C#N)cncc4C3)CC2)nc2ccccc12 [Example 197, 4-[4-fluoro-1-(4-methoxyquinazolin-2-yl)piperidine-4-carbonyl]-3,5-dihydro-2H-pyrido[3,4-f][1,4]oxazepine-9-carbonitrile]",100 to 1000 nM
4,"Cn1ncc2cnc(N3CCC(F)(C(=O)N4CCOc5c(C#N)cncc5C4)CC3)cc21 [Example 107, 4-[4-fluoro-1-(1-methylpyrazolo[4,3-c]pyridin-6-yl)piperidine-4-carbonyl]-3,5-dihydro-2H-pyrido[3,4-f][1,4]oxazepine-9-carbonitrile]",100 to 1000 nM
5,"Cc1cncc2c1OCCN(C(=O)C(C)(C)C(F)F)C2 [Example 62, 3,3-difluoro-2,2-dimethyl-1-(9-methyl-3,5-dihydro-2H-pyrido[3,4-f][1,4]oxazepin-4-yl)propan-1-one]",> 1000 nM
6,"N#Cc1cncc2c1OCCN(C(=O)C1(F)CCN(C(=O)c3cccnc3)CC1)C2 [Example 95, 4-[4-fluoro-1-(pyridine-3-carbonyl)piperidine-4-carbonyl]-3,5-dihydro-2H-pyrido[3,4-f][1,4]oxazepine-9-carbonitrile]",> 1000 nM
7,"CCC(C)C(=O)N1Cc2cncc(C#N)c2OC[C@H]1C (stereo partly drawn) [Example 76, (3R)-3-methyl-4-(2-methylbutanoyl)-3,5-dihydro-2H-pyrido[3,4-f][1,4]oxazepine-9-carbonitrile]",100 to 1000 nM
8,"COC(C)(C)C(=O)N1CCOc2c(C#N)cncc2C1 [Example 43, 4-(2-methoxy-2-methyl-propanoyl)-3,5-dihydro-2H-pyrido[3,4-f][1,4]oxazepine-9-carbonitrile]",100 to 1000 nM
9,"CC(C)(C(=O)N1CCOc2c(C#N)cncc2C1)C1CC(F)(F)C1 [Example 84, 4-[2-(3,3-difluorocyclobutyl)-2-methyl-propanoyl]-3,5-dihydro-2H-pyrido[3,4-f][1,4]oxazepine-9-carbonitrile]",0.1 to 100 nM
10,"COCCOc1nc(N2CCC(C(=O)N3CCOc4c(F)cncc4C3)CC2)ncc1F [Example 130, (9-fluoro-3,5-dihydro-2H-pyrido[3,4-f][1,4]oxazepin-4-yl)-[1-[5-fluoro-4-(2-methoxyethoxy)pyrimidin-2-yl]-4-piperidyl]methanone]",0.1 to 100 nM
11,"COc1ccnc(N2CCC(C(=O)N3Cc4cncc(C#N)c4OC[C@H]3C)CC2)n1 [Example 119, (3R)-4-(1-(4-methoxypyrimidin-2-yl)piperidine-4-carbonyl)-3-methyl-2,3,4,5-tetrahydropyrido[3,4-f][1,4]oxazepine-9-carbonitrile]",0.1 to 100 nM
12,"COC1(C(=O)N2CCOc3c(F)cncc3C2)CCN(c2ncccn2)CC1 [Example 135, (9-fluoro-3,5-dihydro-2H-pyrido[3,4-f][1,4]oxazepin-4-yl)-(4-methoxy-1-pyrimidin-2-yl-4-piperidyl)methanone]",0.1 to 100 nM
13,"N#Cc1cncc2c1OCCN(C(=O)C1(F)CCN(c3ncc4c(n3)CCC4)CC1)C2 [Example 111, 4-[1-(6,7-dihydro-5H-cyclopenta[d]pyrimidin-2-yl)-4-fluoro-piperidine-4-carbonyl]-3,5-dihydro-2H-pyrido[3,4-f][1,4]oxazepine-9-carbonitrile]",100 to 1000 nM
14,"O=C(C(C1CC1)C1CC1)N1CCOc2c(F)cccc2C1 [Example 19, 2,2-dicyclopropyl-1-(9-fluoro-3,5-dihydro-2H-1,4-benzoxazepin-4-yl)ethanone]",> 1000 nM

# Same assay, conditions: GST-hRIPK1 (8-327), mean of at least two independent experiments
row,SMILES,IC50
1,"CC(C(=O)N1CCOc2c(C#N)cncc2C1)(C(F)F)C1CC1 (single isomer, unassigned) [Example 259, 4-(2-Cyclopropyl-3,3-difluoro-2-methyl-propanoyl)-3,5-dihydro-2H-pyrido[3,4-f][1,4]oxazepine-9-carbonitrile]",100 to 1000 nM
2,"CCC(C)(OC)C(=O)N1CCOc2c(C#N)cncc2C1 (single isomer, unassigned) [Example 282, 4-(2-Methoxy-2-methyl-butanoyl)-3,5-dihydro-2H-pyrido[3,4-f][1,4]oxazepine-9-carbonitrile]",100 to 1000 nM
3,"CC1(C(=O)N2CCOc3c(C#N)cncc3C2)CCN(c2ncc(F)cn2)CC1F (single isomer, unassigned) [Example 299, 4-[3-Fluoro-1-(5-fluoropyrimidin-2-yl)-4-methyl-piperidine-4-carbonyl]-3,5-dihydro-2H-pyrido[3,4-f][1,4]oxazepine-9-carbonitrile]",0.1 to 100 nM
4,"N#Cc1cncc2c1OCCN(C(=O)C1(F)CCN(c3nccn4ncnc34)CC1)C2 [Example 206, 4-[4-fluoro-1-([1,2,4]triazolo[1,5-a]pyrazin-8-yl)piperidine-4-carbonyl]-3,5-dihydro-2H-pyrido[3,4-f][1,4]oxazepine-9-carbonitrile]",0.1 to 100 nM
5,"[2H]C1([2H])Oc2c(C#N)cncc2CN(C(=O)C(C)(C)C(F)F)C1([2H])[2H] [Example 263, 2,2,3,3-tetradeuterio-4-(3,3-difluoro-2,2-dimethyl-propanoyl)-5H-pyrido[3,4-f][1,4]oxazepine-9-carbonitrile]",0.1 to 100 nM
6,"CC(CF)(C(=O)N1CCOc2c(C#N)cncc2C1)C(F)F (stereo not drawn) [Example 266, 4-[3,3-Difluoro-2-(fluoromethyl)-2-methyl-propanoyl]-3,5-dihydro-2H-pyrido[3,4-f][1,4]oxazepine-9-carbonitrile]",100 to 1000 nM
7,"N#Cc1cncc2c1OCCN(C(=O)C1=CCN(c3ncc(F)cn3)CC1)C2 [Example 245, 4-[1-(5-fluoropyrimidin-2-yl)-3,6-dihydro-2H-pyridine-4-carbonyl]-3,5-dihydro-2H-pyrido[3,4-f][1,4]oxazepine-9-carbonitrile]",100 to 1000 nM
8,"N#Cc1cncc2c1OCCN(C(=O)C1(F)CCN(c3ccc4ccccc4n3)CC1)C2 [Example 200, 4-[4-fluoro-1-(2-quinolyl)piperidine-4-carbonyl]-3,5-dihydro-2H-pyrido[3,4-f][1,4]oxazepine-9-carbonitrile]",0.1 to 100 nM
9,"N#Cc1cncc2c1OCCN(C(=O)C1CCN(c3ccnc4c(F)cnn34)CC1F)C2 (single isomer, unassigned) [Example 304, 4-[3-Fluoro-1-(3-fluoropyrazolo[1,5-a]pyrimidin-7-yl)piperidine-4-carbonyl]-3,5-dihydro-2H-pyrido[3,4-f][1,4]oxazepine-9-carbonitrile]",0.1 to 100 nM
10,"O=C(C1CCN(c2nccn3ncnc23)C[C@@H]1F)N1CCOc2c(F)cncc2C1 (stereo partly drawn) [Example 257, (9-fluoro-3,5-dihydro-2H-pyrido[3,4-f][1,4]oxazepin-4-yl)-[(3,4)-trans-3-fluoro-1-([1,2,4]triazolo[1,5-a]pyrazin-8-yl)-4-piperidyl]methanone]",100 to 1000 nM
11,"N#Cc1cncc2c1OCCN(C(=O)C1CCN(c3ccnc4ccnn34)C[C@@H]1F)C2 (stereo partly drawn) [Example 249, 4-[(3,4)-trans-3-fluoro-1-pyrazolo[1,5-a]pyrimidin-7-yl-piperidine-4-carbonyl]-3,5-dihydro-2H-pyrido[3,4-f][1,4]oxazepine-9-carbonitrile]",0.1 to 100 nM
12,"COc1nc(N2CCC(C(=O)N3CCOc4c(C#N)cncc4C3)CC2)c(F)cc1F [Example 287, 4-[1-(3,5-difluoro-6-methoxy-2-pyridyl)piperidine-4-carbonyl]-3,5-dihydro-2H-pyrido[3,4-f][1,4]oxazepine-9-carbonitrile]",0.1 to 100 nM
13,"O=C(C1CCN(c2ccnc3ccnn23)C[C@@H]1F)N1CCOc2c(F)cncc2C1 (stereo partly drawn) [Example 253, (9-fluoro-3,5-dihydro-2H-pyrido[3,4-f][1,4]oxazepin-4-yl)-[(3,4)-trans-3-fluoro-1-pyrazolo[1,5-a]pyrimidin-7-yl-4-piperidyl]methanone]",0.1 to 100 nM
14,"CCC(C)(OC)C(=O)N1CCOc2c(C#N)cncc2C1 (single isomer, unassigned) [Example 283, 4-(-2-Methoxy-2-methyl-butanoyl)-3,5-dihydro-2H-pyrido[3,4-f][1,4]oxazepine-9-carbonitrile]",100 to 1000 nM
15,"N#Cc1cncc2c1OCCN(C(=O)C1(F)CCN(c3ccnc4ncnn34)CC1)C2 [Example 212, 4-[4-fluoro-1-([1,2,4]triazolo[1,5-a]pyrimidin-7-yl)piperidine-4-carbonyl]-3,5-dihydro-2H-pyrido[3,4-f][1,4]oxazepine-9-carbonitrile]",100 to 1000 nM
16,"N#Cc1cncc2c1OCCN(C(=O)C1(F)CCN(c3ncc(F)cn3)CC1(F)F)C2 (single isomer, unassigned) [Example 295, 4-[3,3,4-Trifluoro-1-(5-fluoropyrimidin-2-yl)piperidine-4-carbonyl]-3,5-dihydro-2H-pyrido[3,4-f][1,4]oxazepine-9-carbonitrile]",100 to 1000 nM
17,"CC1(C(=O)N2CCOc3c(C#N)cncc3C2)CCCCO1 (stereo not drawn) [Example 240, 4-(2-methyltetrahydropyran-2-carbonyl)-3,5-dihydro-2H-pyrido[3,4-f][1,4]oxazepine-9-carbonitrile]",100 to 1000 nM
18,"CC(F)C(C)(C)C(=O)N1CCOc2c(C#N)cncc2C1 (single isomer, unassigned) [Example 270, 4-(3-fluoro-2,2-dimethyl-butanoyl)-3,5-dihydro-2H-pyrido[3,4-f][1,4]oxazepine-9-carbonitrile]",0.1 to 100 nM
19,"COC1CN(c2ncc(F)cn2)CCC1C(=O)N1CCOc2c(C#N)cncc2C1 (stereo not drawn) [Example 309, 4-[1-(5-fluoropyrimidin-2-yl)-3-methoxy-piperidine-4-carbonyl]-3,5-dihydro-2H-pyrido[3,4-f][1,4]oxazepine-9-carbonitrile]",100 to 1000 nM
